Values after ≈ are worked out from the molar mass of the structure shown. Values joined by “and” are separate entries in the source; they are usually repeats but may differ in a detail not shown here. Identical values can stand only once. Like-named read-outs stand apart in the source and are kept apart here.
Assays:
[1] = tested on: Fusobacterium necrophorum; experiment: MIC of Virginiamycin and ionophores alone and combined at fixed ratios, two-fold serial dilution of a stock solution; assay type: cell-based; conditions: for MIC Alone: antibiotic alone; for MIC: Fusobacterium necrophorum, read-out: MIC Alone
Experimental: In this example, microbiological studies were initiated with combinations of antibiotics from the Virginiamycin family of antibiotics and ionophore family of antibiotics so as to determine their potency in controlling liver abscesses. As Fusobacterium necrophorum has been associated with bovine liver abscess in cattle, it was determined that microbiological studies involving this bacterium would be undertaken. Since the liver abscess etiology is poorly defined, it is difficult to precisely extrapolate these studies to animal disease. […]
Virginiamycin was combined with an antibiotic from the ionophore family in a ratio expected in medicated feeds, eg. Salinomycin at 20 g/Ton and Virginamycin at 15 g/Ton have a ratio of 1.3:1. For the microbilogical studies, a stock solution was made up to contain Salinomycin and Virginiamycin in the same ratio of 1.3:1. The stock solution was serially diluted two fold. The dilutions were incubated with F. necr. The end point was the lowest concentrations antibiotics which inhibited the growth of F. necr., or MIC for minimal inhibitory concentration, eg. the MIC of Salinomycin was 5 µg/ml while that of Virginiamycin was 1 µg/ml.

liver abscess = experiment: Incidence of liver abscess at slaughter in cattle fed a ration supplemented with Virginiamycin; assay type: in vivo; conditions: for No. of Animals With Liver Abscess: ad libitum, approximately 120 days, Total Animals 197 (control 26 of 199); for No. of Animals Without Liver Abscess: Total Animals 197
Experimental: A cattle ration was prepared using the following formula: […]
The ration was supplemented with varying proportions of Virginiamycin and fed, ad libitum, to approximately 200 cattle weighing between 650 lbs. and 850 lbs. The cattle were processed according to standard procedures for the facility, individually weighed and identified. The treatments were continued until the cattle reached an approximate weight of 1100 lbs. (approximately 120 days).
Virginiamycin was added to the ration in the following amounts: Table 2
At slaughter, livers were identified with the individual animal number and scored for liver abscess after examination in the manner required by USDA. Livers were palpated and suspicious area were excised and examined for the presence of liver abscesses.

[2] = tested on: Fusobacterium necrophorum Colorado Strain; experiment: MIC by agar dilution method (Wilkins-Chalgren Agar); assay type: cell-based
Experimental: (§1) In this example, microbiological studies were initiated with Virginiamycin and other antibiotics so as to determine their potency in controlling liver abscesses. As Fusobacterium necrophorum has been associated with bovine liver abscesses in cattle, it was determined that microbiological studies involving this bacterium would be undertaken with representative examples of antibiotics including Virginiamycin.
(§2) The MIC's for Fusobacterium necrophorum was done by the agar dilution method. Two-fold serial dilutions of each compound was incorporated into Wilkins-Chalgren Agar plates. Each Fusobacterium necrophorum was propagated in Peptone-Yeast-Glucose broth and inoculated onto the plates with a multipoint inoculating device. The plates were incubated at 37°C in an atmosphere of 10% H₂, 5% CO₂ and 85% N₂, for 40 hours.

[3] = tested on: Fusobacterium necrophorum ATCC 27852; experiment: as above; assay type: cell-based
Experimental: as §1, §2

[4] = tested on: Fusobacterium necrophorum ATCC 25286; experiment: as above; assay type: cell-based
Experimental: as §1, §2

[5] = tested on: Fusobacterium necrophorum (the two ATCC strains); experiment: MIC of factors M and S of virginiamycin, one experiment, two ATCC strains taken together; assay type: cell-based; conditions: geometric mean for the two ATCC strains
Experimental: as §2
In the one experiment in which factors M and S of virginiamycin were tested, the MICs were 0.35 (geometric mean for the two ATCC strains) and greater than 32 µg/ml, respectively. Virginiamycin contains 75% of Factor M and 25% of Factor S.

[6] = Fasalocid : Virginiamycin, ratio 2:1
[7] = Fasalocid : Virginiamycin, ratio 3:1
[8] = Ferrensinmycin : Virginiamycin, ratio 1.3:1
[9] = strain ATCC 27852, 37°C, anaerobic atmosphere, 40 hours, * = geometric mean of more than one determination
[10] = strain ATCC 25286, 37°C, anaerobic atmosphere, 40 hours, * = geometric mean of more than one determination
[11] = Fusobacterium necrophorum, ATCC27852, 40 h
[12] = Fusobacterium necrophorum, ATCC25286, 40 h
[13] = Fusobacterium necrophorum, 40 h

Question: Which “MIC Combination” value [1, 6] does the source give for Virginiamycin here?
Answer: 1 µg/mL

Question: What about the “MIC Combination” value [1, 7] of the same molecule?
Answer: 0.9 µg/mL

Question: And the “MIC Combination” value [1, 8]?
Answer: 0.5 µg/mL

Question: And the “MIC Combination” value ([1]; Monensin : Virginiamycin, ratio 0.7:1)?
Answer: 0.5 µg/mL

Question: And the “MIC Combination” value ([1]; Monensin : Virginiamycin, ratio 2:1)?
Answer: 0.01 µg/mL

Question: And the “MIC Combination” value ([1]; Monensin : Virginiamycin, ratio 3:1)?
Answer: 0.7 µg/mL

Question: And the “MIC Combination” value ([1]; Salinomycin : Virginiamycin, ratio 1:1)?
Answer: 0.7 µg/mL

Question: And the “MIC Combination” value ([1]; Salinomycin : Virginiamycin, ratio 1.3:1)?
Answer: 0.02 µg/mL

Question: What about the “decrease in the MIC on combination” value ([1]; Salinomycin : Virginiamycin, ratio 1.3:1, vs alone) of the same molecule?
Answer: 50 fold

Question: What about the “MIC Alone” value [1] of the same molecule?
Answer: 0.7 µg/mL

Question: And the “No. of Animals With Liver Abscess” value (liver abscess; Vm 9.1 grams/ton in ration)?
Answer: 16

Question: What about the “No. of Animals Without Liver Abscess” value (liver abscess; Vm 9.1 grams/ton in ration) of the same molecule?
Answer: 181

Question: And the “No. of Animals With Liver Abscess” value (liver abscess; Vm 22.7 grams/ton in ration)?
Answer: 12

Question: And the “No. of Animals Without Liver Abscess” value (liver abscess; Vm 22.7 grams/ton in ration)?
Answer: 185

Question: And the “No. of Animals With Liver Abscess” value (liver abscess; Vm 45.5 grams/ton in ration)?
Answer: 6

Question: What about the “No. of Animals Without Liver Abscess” value (liver abscess; Vm 45.5 grams/ton in ration) of the same molecule?
Answer: 191

Question: And the “effect on the incidence of liver abscess” value (liver abscess; all dose groups vs control, Chi-Square Goodness of Fit)?
Answer: obvious beneficial effect

Question: And the MIC ([2]; Colorado Strain, 37°C, anaerobic atmosphere, 40 hours, * = geometric mean of more than one determination)?
Answer: 1.0* µg/ml

Question: And the “effectiveness compared with Tylosin” value ([3]; strain ATCC 27852, from MICs)?
Answer: twice as effective as Tylosin

Question: What about the MIC [3, 9] of the same molecule?
Answer: 1.0* µg/ml

Question: What about the MIC [4, 10] of the same molecule?
Answer: 0.9* µg/ml

Question: What does the source list for CN(C)[C@@H]1C(O)=C(C(N)=O)C(=O)[C@@]2(O)C(O)=C3C(=O)c4c(O)ccc(Cl)c4[C@@](C)(O)[C@H]3C[C@@H]12 [Chlortetracycline]?
Answer: MIC [3, 11]: 0.12 µg/mL (≈ 0.251 µM); MIC [4, 12]: 0.02 µg/mL (≈ 0.0418 µM)

Question: For Avoparcin, which MIC [3, 9] is on record?
Answer: 64.0 µg/mL

Question: What about the MIC [4, 10] of the same molecule?
Answer: 32.0 µg/mL

Question: With Flavomycin as the molecule, how does the MIC [3, 9] read?
Answer: 0.12 µg/mL

Question: And the MIC [4, 10]?
Answer: 0.25 µg/mL

Question: Ferrensinmycin was tested. Which “MIC Combination” value [1, 8] did it give?
Answer: 0.6 µg/mL

Question: And the “MIC Alone” value [1]?
Answer: 0.5 µg/mL

Question: For Zinc bacitracin, which MIC [3, 9] is on record?
Answer: 9.2 µg/mL

Question: Which “MIC Combination” value [1, 6] does the source give for CC[C@@H](C(=O)[C@@H](C)[C@@H](O)[C@H](C)CCc1ccc(C)c(O)c1C(=O)O)[C@H]1O[C@](CC)([C@H]2CC[C@](O)(CC)[C@H](C)O2)C[C@@H]1C [Fasalocid] here?
Answer: 1 µg/mL

Question: And the “MIC Combination” value [1, 7]?
Answer: 3 µg/mL

Question: What about the “MIC Alone” value [1] of the same molecule?
Answer: 7 µg/mL and 10 µg/mL

Question: Which MIC [5] does the source give for Virginiamycin factor M here?
Answer: 0.35 µg/mL

Question: What about the MIC [3, 9] of the same molecule?
Answer: 0.25 µg/mL

Question: And the MIC [4, 10]?
Answer: 0.5 µg/mL

Question: CN(C)[C@@H]1C(=O)C(C(N)=O)=C(O)[C@@]2(O)C(=O)C3=C(O)c4c(O)cccc4[C@@](C)(O)[C@H]3[C@H](O)[C@@H]12 [Oxytetracyline, Oxytetracycline] was tested. Which MIC [3, 11] did it give?
Answer: 0.25 µg/mL (≈ 0.543 µM)

Question: What about the MIC [4, 12] of the same molecule?
Answer: 0.03 µg/mL (≈ 0.0652 µM)

Question: Which MIC [4, 12] does the source give for CC[C@H]1OC(=O)[C@H](C)[C@@H](O[C@H]2C[C@@](C)(OC)[C@@H](O)[C@H](C)O2)[C@H](C)[C@@H](O[C@@H]2O[C@H](C)C[C@H](N(C)C)[C@H]2O)[C@](C)(O)C[C@@H](C)C(=O)[C@H](C)[C@@H](O)[C@]1(C)O [Erythromycin] here?
Answer: 8 µg/mL (≈ 10.9 µM)

Question: For CC[C@@H](C(=O)[C@@H](C)[C@@H](O)[C@H](C)[C@@H]1O[C@@H]([C@@H](CC)C(=O)O)CC[C@@H]1C)[C@H]1O[C@]2(C=C[C@@H](O)[C@]3(CC[C@@](C)([C@H]4CC[C@](O)(CC)[C@H](C)O4)O3)O2)[C@H](C)C[C@@H]1C [Salinomycin], which “decrease in the MIC on combination” value [1] is on record?
Answer: 250 fold

Question: And the MIC [1]?
Answer: 5 µg/mL

Question: What about the MIC [2, 13] of the same molecule?
Answer: 5.7 µg/mL (≈ 7.59 µM)

Question: And the MIC [3, 11]?
Answer: 4 µg/mL (≈ 5.33 µM)

Question: What about the MIC [4, 12] of the same molecule?
Answer: 3.6 µg/mL (≈ 4.79 µM)

Question: How did the MIC [2, 13] turn out when CC[C@H]1OC(=O)C[C@@H](O)[C@H](C)[C@@H](O[C@@H]2O[C@H](C)[C@@H](O[C@H]3C[C@@](C)(O)[C@@H](O)[C@H](C)O3)[C@H](N(C)C)[C@H]2O)[C@@H](CC=O)C[C@@H](C)C(=O)/C=C/C(C)=C/[C@@H]1CO[C@@H]1O[C@H](C)[C@@H](O)[C@@H](OC)[C@H]1OC [Tylosin] was run?
Answer: 1 µg/mL (≈ 1.09 µM)

Question: What about the MIC [3, 11] of the same molecule?
Answer: 1.4 µg/mL (≈ 1.53 µM)

Question: And the MIC [4, 12]?
Answer: 0.8 µg/mL (≈ 0.873 µM)

Question: How did the MIC [2, 13] turn out when CC[C@@H](C(=O)[C@@H](C)[C@@H](O)[C@H](C)CCc1ccc(C)c(O)c1C(=O)O)[C@H]1O[C@](CC)([C@H]2CC[C@](O)(CC)[C@H](C)O2)C[C@@H]1C [Lasalocid] was run?
Answer: 8.5 µg/mL (≈ 14.4 µM)

Question: And the MIC [3, 11]?
Answer: 12 µg/mL (≈ 20.3 µM)

Question: What about the MIC [4, 12] of the same molecule?
Answer: 9.1 µg/mL (≈ 15.4 µM)

Question: CC[C@@]1([C@@H]2O[C@@H]([C@H]3O[C@@](O)(CO)[C@H](C)C[C@@H]3C)C[C@@H]2C)CC[C@H]([C@]2(C)CC[C@]3(C[C@H](O)[C@@H](C)[C@@H]([C@@H](C)[C@@H](OC)[C@H](C)C(=O)O)O3)O2)O1 [Monensin] was tested. Which MIC [1] did it give?
Answer: 4 µg/mL

Question: What about the MIC [2, 13] of the same molecule?
Answer: 4.2 µg/mL (≈ 6.26 µM)

Question: And the MIC [3, 11]?
Answer: 3 µg/mL (≈ 4.47 µM)

Question: What about the MIC [4, 12] of the same molecule?
Answer: 6.4 µg/mL (≈ 9.54 µM)

— patent publication EP0356192A2, “Prevention & treatment of liver abscesses in animals” (SMITHKLINE BEECHAM CORPORATION, priority 1988, dated 1990)
